Values of other authors as cited in patent US20130108701A1, “Solid Dosage Forms of Antipsychotics” (priority 2010, published 2013).
Counter-ions that a name gives are not always drawn.

Key:
[1] = not given; remark: listed apart in the source

aqueous solubility: relatively poor
permeability [1]: high
Compound: O=C1Cc2cc(CCN3CCN(c4nsc5ccccc45)CC3)c(Cl)cc2N1 [Ziprasidone hydrochloride, 5-[2-[4-(1,2-benzisothiazol-3-yl)-1-piperazinyl]ethyl]-6-chloro-1,3-dihydro-2H-indol-2-one]
